# Source: PubChem BioAssay AID248 (DTP/NCI, 2004)
# “And” between values parts separate entries of the source, which are not always exact repeats. Equal values may be shown once. Toxic doses and inconclusive results are not listed.
# Test system: L1210 leukemia ip in BDF1 mice, survival T/C
# Assay: NCI In Vivo Anticancer Drug Screen. Data for tumor model L1210 Leukemia (intraperitoneal) in B6D2F1 (BDF1) mice
# Conditions: endpoint: mean survival time, higher = longer survival
# In short: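 Each compound was tested against a transplantable tumor grown in mice. The endpoint was survival, with treated animals benchmarked against vehicle controls as a simple ratio.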
# [1] = dose: 100.0 mg/kg/injection, schedule: Q01DX009 (ip), vehicle: saline with Tween-80
# [2] = dose: 100.0 mg/kg/injection, schedule: Q04DX003 (ip), vehicle: other
# [3] = dose: 200.0 mg/kg/injection, schedule: Q01DX009 (ip), vehicle: saline with Tween-80
# [4] = dose: 200.0 mg/kg/injection, schedule: Q04DX003 (ip), vehicle: other
# [5] = dose: 400.0 mg/kg/injection, schedule: Q01DX009 (ip), vehicle: saline with Tween-80
# [6] = dose: 400.0 mg/kg/injection, schedule: Q04DX003 (ip), vehicle: other
# [7] = dose: 100.0 mg/kg/injection, schedule: Q01DX009 (ip), vehicle: water
# [8] = dose: 100.0 mg/kg/injection, schedule: Q04DX003 (ip), vehicle: water
# [9] = dose: 100.0 mg/kg/injection, schedule: Q01DX001 (ip), vehicle: saline with Tween-80
# [10] = dose: 200.0 mg/kg/injection, schedule: Q01DX001 (ip), vehicle: saline with Tween-80
# [11] = dose: 400.0 mg/kg/injection, schedule: Q01DX001 (ip), vehicle: saline with Tween-80
# [12] = dose: 100.0 mg/kg/injection, schedule: Q01DX001 (ip), vehicle: saline
# [13] = dose: 200.0 mg/kg/injection, schedule: Q01DX001 (ip), vehicle: saline
# [14] = dose: 400.0 mg/kg/injection, schedule: Q01DX001 (ip), vehicle: saline
# [15] = dose: 25.0 mg/kg/injection, schedule: Q01DX009 (ip), vehicle: saline with Tween-80
# [16] = dose: 50.0 mg/kg/injection, schedule: Q01DX009 (ip), vehicle: saline with Tween-80
# [17] = dose: 100.0 mg/kg/injection, schedule: Q04DX003 (ip), vehicle: saline
# [18] = dose: 200.0 mg/kg/injection, schedule: Q04DX003 (ip), vehicle: saline
# [19] = dose: 400.0 mg/kg/injection, schedule: Q04DX003 (ip), vehicle: saline
# [20] = dose: 100.0 mg/kg/injection, schedule: Q01DX009 (ip), vehicle: Klucel (hydroxypropylcellulose) (HPC)
# [21] = dose: 100.0 mg/kg/injection, schedule: Q04DX003 (ip), vehicle: Klucel (hydroxypropylcellulose) (HPC)
# [22] = dose: 200.0 mg/kg/injection, schedule: Q04DX003 (ip), vehicle: Klucel (hydroxypropylcellulose) (HPC)
# [23] = dose: 400.0 mg/kg/injection, schedule: Q01DX009 (ip), vehicle: Klucel (hydroxypropylcellulose) (HPC)
# [24] = dose: 400.0 mg/kg/injection, schedule: Q04DX003 (ip), vehicle: Klucel (hydroxypropylcellulose) (HPC)
structure (smiles),measurement,setting,value
CC1(O)CC2CCC1C2 (stereo not given),T/C,"dose: 100.0 mg/kg/injection, schedule: Q01DX009 (ip), vehicle: other",102 % of control
same,T/C,[1],92 % of control
same,T/C,[2],95 % of control
same,T/C,"dose: 200.0 mg/kg/injection, schedule: Q01DX009 (ip), vehicle: other",120 % of control
same,T/C,[3],106 % of control
same,T/C,[4],100 % of control
same,T/C,"dose: 400.0 mg/kg/injection, schedule: Q01DX009 (ip), vehicle: other",104 % of control
same,T/C,[5],92 % of control
same,T/C,[6],91 % of control
Sc1ccc(Cl)cc1.[Pb],T/C,"dose: 25.0 mg/kg/injection, schedule: Q01DX009 (ip), vehicle: gum acacia",94 % of control
same,T/C,"dose: 25.0 mg/kg/injection, schedule: Q04DX002 (ip), vehicle: gum acacia",99 % of control
same,T/C,"dose: 50.0 mg/kg/injection, schedule: Q01DX009 (ip), vehicle: gum acacia",94 % of control
same,T/C,"dose: 50.0 mg/kg/injection, schedule: Q04DX002 (ip), vehicle: gum acacia",99 % of control
same,T/C,"dose: 100.0 mg/kg/injection, schedule: Q04DX002 (ip), vehicle: gum acacia",96 % of control and 91 % of control
same,T/C,"dose: 200.0 mg/kg/injection, schedule: Q04DX002 (ip), vehicle: gum acacia",102 % of control
same,T/C,"dose: 400.0 mg/kg/injection, schedule: Q04DX002 (ip), vehicle: gum acacia",109 % of control
CCOC(=O)CNC(=O)Oc1ccc(NC(C)=O)cc1,T/C,[1],100 % of control
same,T/C,[3],95 % of control
same,T/C,[5],108 % of control
COc1cc2cc(-c3cc(OC)c(OC)c(OC)c3)c3c(c2cc1OC)CNC3,T/C,"dose: 12.5 mg/kg/injection, schedule: Q01DX009 (ip), vehicle: water",103 % of control
same,T/C,"dose: 25.0 mg/kg/injection, schedule: Q01DX009 (ip), vehicle: water",93 % of control
same,T/C,"dose: 50.0 mg/kg/injection, schedule: Q01DX009 (ip), vehicle: water",97 % of control
same,T/C,[7],102 % of control and 86 % of control
same,T/C,[8],102 % of control
same,T/C,"dose: 200.0 mg/kg/injection, schedule: Q04DX003 (ip), vehicle: water",98 % of control
same,T/C,"dose: 400.0 mg/kg/injection, schedule: Q04DX003 (ip), vehicle: water",109 % of control
Clc1cccc2c1Cc1c(Cl)cccc1C2,T/C,[9],97 % of control
same,T/C,[10],94 % of control
same,T/C,[11],97 % of control
CCOC1C(=O)c2ccccc2CCN1S(=O)(=O)c1ccc(C)cc1 (stereo not given),T/C,[12],96 % of control
same,T/C,"dose: 100.0 mg/kg/injection, schedule: Q01DX009 (ip), vehicle: saline",101 % of control
same,T/C,[13],100 % of control
same,T/C,"dose: 200.0 mg/kg/injection, schedule: Q01DX009 (ip), vehicle: saline",95 % of control
same,T/C,[14],103 % of control
same,T/C,"dose: 400.0 mg/kg/injection, schedule: Q01DX009 (ip), vehicle: saline",94 % of control
CC(=O)C(C)(c1ccccc1)N(Cc1ccccc1)C(=O)c1ccccc1 (stereo not given),T/C,[2],93 % of control
same,T/C,[4],108 % of control
same,T/C,[6],92 % of control
CCN(CC)Cc1c(C)[nH]c2c(OC)cccc2c1=O,T/C,"dose: 25.0 mg/kg/injection, schedule: Q04DX003 (ip), vehicle: water",103 % of control
same,T/C,"dose: 50.0 mg/kg/injection, schedule: Q04DX003 (ip), vehicle: water",97 % of control
same,T/C,[7],101 % of control
same,T/C,[8],100 % of control and 102 % of control
CC(=O)OCC1OC(N=C=S)C(OC(C)=O)C(OC(C)=O)C1OC(C)=O (stereo not given),T/C,"dose: 12.5 mg/kg/injection, schedule: Q01DX009 (ip), vehicle: saline with Tween-80",97 % of control
same,T/C,[15],100 % of control
same,T/C,[16],93 % of control
O=C1CCC(N2C(=O)C3CC=CCC3C2=O)C(=O)N1 (stereo not given),T/C,[17],104 % of control and 109 % of control
same,T/C,[18],104 % of control and 106 % of control
same,T/C,[19],97 % of control and 112 % of control
COc1cc(/C=N/N=C(\N)N[N+](=O)[O-])cc(OC)c1OC,T/C,[9],114 % of control
same,T/C,[10],97 % of control
same,T/C,[11],96 % of control
COC(=O)C1C2C(C)=C3CCCCC3(C1C(=O)OC)C(C(=O)OC)C2C(=O)OC (stereo not given),T/C,[12],113 % of control
same,T/C,[13],95 % of control
same,T/C,[14],86 % of control
C(/C=C/c1ccccc1)=C1c2ccccc2-c2ccccc21,T/C,[1],88 % of control
same,T/C,"dose: 100.0 mg/kg/injection, schedule: Q04DX003 (ip), vehicle: saline with Tween-80",90 % of control
same,T/C,[3],98 % of control
same,T/C,"dose: 200.0 mg/kg/injection, schedule: Q04DX003 (ip), vehicle: saline with Tween-80",93 % of control
same,T/C,[5],96 % of control
same,T/C,"dose: 400.0 mg/kg/injection, schedule: Q04DX003 (ip), vehicle: saline with Tween-80",95 % of control
O=C1Cc2ccccc2N1C(=O)c1ccccc1,T/C,"dose: 50.0 mg/kg/injection, schedule: Q04DX002 (ip), vehicle: Klucel (hydroxypropylcellulose) (HPC)",97 % of control
same,T/C,"dose: 100.0 mg/kg/injection, schedule: Q04DX002 (ip), vehicle: Klucel (hydroxypropylcellulose) (HPC)",101 % of control
same,T/C,"dose: 200.0 mg/kg/injection, schedule: Q04DX002 (ip), vehicle: Klucel (hydroxypropylcellulose) (HPC)",90 % of control
Cc1cccc(C)c1NS(=O)(=O)c1ccccc1,T/C,[20],104 % of control
same,T/C,[21],101 % of control
same,T/C,"dose: 200.0 mg/kg/injection, schedule: Q01DX009 (ip), vehicle: Klucel (hydroxypropylcellulose) (HPC)",101 % of control
same,T/C,[22],103 % of control
same,T/C,[23],98 % of control
same,T/C,[24],104 % of control
COCC=C(C)C,T/C,[16],106 % of control
same,T/C,[1],92 % of control
same,T/C,[3],95 % of control
CC(=O)N1Cc2cc3ccccc3nc2C1,T/C,[17],98 % of control
same,T/C,[18],107 % of control
same,T/C,[19],96 % of control
CC1CC(C)(C)[N+](C)=C(CC(O)(c2ccccc2)c2ccccc2)O1 (stereo not given),T/C,"dose: 6.25 mg/kg/injection, schedule: Q04DX003 (ip), vehicle: saline sonified",95 % of control
same,T/C,"dose: 12.5 mg/kg/injection, schedule: Q04DX003 (ip), vehicle: saline sonified",104 % of control
same,T/C,"dose: 25.0 mg/kg/injection, schedule: Q04DX003 (ip), vehicle: saline sonified",92 % of control
O=C(O)c1cc(Cl)c(O)c(Cl)c1,T/C,[1],107 % of control
same,T/C,[3],91 % of control
same,T/C,[5],101 % of control
COc1cccc(/C=C/[N+](=O)[O-])c1OC,T/C,"dose: 17.5 mg/kg/injection, schedule: Q01DX009 (ip), vehicle: saline with Tween-80",90 % of control
same,T/C,"dose: 35.0 mg/kg/injection, schedule: Q01DX009 (ip), vehicle: saline with Tween-80",101 % of control
same,T/C,"dose: 50.0 mg/kg/injection, schedule: Q01DX001 (ip), vehicle: other",103 % of control
same,T/C,"dose: 50.0 mg/kg/injection, schedule: Q01DX009 (ip), vehicle: saline",107 % of control
same,T/C,"dose: 70.0 mg/kg/injection, schedule: Q01DX009 (ip), vehicle: saline with Tween-80",95 % of control
same,T/C,"dose: 100.0 mg/kg/injection, schedule: Q01DX001 (ip), vehicle: other",97 % of control
same,T/C,[17],108 % of control
same,T/C,"dose: 200.0 mg/kg/injection, schedule: Q01DX001 (ip), vehicle: other",103 % of control
same,T/C,[18],100 % of control
CC(C)(C)NC(=O)NCCc1ccccc1,T/C,[20],106 % of control
same,T/C,[21],96 % of control
same,T/C,[22],97 % of control and 89 % of control
same,T/C,[23],103 % of control
same,T/C,[24],91 % of control and 92 % of control
Cn1ncc(C(=O)O)c1N,T/C,[15],102 % of control
same,T/C,[16],111 % of control
same,T/C,[1],100 % of control
same,T/C,[3],94 % of control
same,T/C,[5],96 % of control
Cc1cc(N(CCOS(C)(=O)=O)CCOS(C)(=O)=O)ccc1C=Nc1ccc(-c2csc(COc3ccccc3)n2)cc1,T/C,"dose: 66.0 mg/kg/injection, schedule: Q04DX003 (ip), vehicle: Klucel (hydroxypropylcellulose) (HPC)",116 % of control
same,T/C,[21],98 % of control
same,T/C,"dose: 125.0 mg/kg/injection, schedule: Q04DX003 (ip), vehicle: Klucel (hydroxypropylcellulose) (HPC)",158 % of control
same,T/C,"dose: 150.0 mg/kg/injection, schedule: Q04DX003 (ip), vehicle: Klucel (hydroxypropylcellulose) (HPC)",154 % of control
same,T/C,[22],151 % of control
